Results reported in ChEMBL document CHEMBL1146114, “A new class of bradykinin 1 receptor antagonists containing the piperidine acetic acid tetralin core” (Bioorg Med Chem Lett, 2006).
Values belong to the molecule of their own block, whether it stands above or below them.

Experiments:
B1 bradykinin receptor [1] = target: T1, B1 bradykinin receptor (Homo sapiens, UniProt P46663); experiment: Inhibition of human B1 receptor
T1 sequence (P46663 whole entry): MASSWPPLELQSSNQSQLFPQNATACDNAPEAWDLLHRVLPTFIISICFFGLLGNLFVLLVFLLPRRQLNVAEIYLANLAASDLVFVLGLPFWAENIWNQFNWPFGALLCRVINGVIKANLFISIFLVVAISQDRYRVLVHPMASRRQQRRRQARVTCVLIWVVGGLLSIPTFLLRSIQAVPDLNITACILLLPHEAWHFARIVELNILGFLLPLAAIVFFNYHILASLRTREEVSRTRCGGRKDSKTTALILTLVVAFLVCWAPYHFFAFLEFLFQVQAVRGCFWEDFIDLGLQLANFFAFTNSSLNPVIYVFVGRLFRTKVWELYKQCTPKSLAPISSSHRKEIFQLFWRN

B1 bradykinin receptor [2] = target: T1, B1 bradykinin receptor; experiment: Inhibition of human B1 receptor by calcium influx functional assay
[3] = Half life in rat at 1 mg/kg, iv; assay type: ADME, organism-based; set-up: dose 1 mg/kg, route intravenous; details: in vivo
[4] = Clearance in rat at 1 mg/kg, iv; assay type: ADME, organism-based; set-up: dose 1 mg/kg, route intravenous; details: in vivo
[5] = Volume of distribution in rat at 1 mg/kg, iv; assay type: ADME, organism-based; set-up: dose 1 mg/kg, route intravenous; details: in vivo, read-out: Vss
[6] = Oral bioavailability in rat at 10 mg/kg, po; assay type: ADME, organism-based; details: in vivo

Compound: Cc1ccc(S(=O)(=O)N2CCCC[C@H]2CC(=O)N[C@@H]2CCCc3cc(CNC(C)(C)C)ccc32)cc1
IC50 (B1 bradykinin receptor [1]): 93 nM
IC50 (B1 bradykinin receptor [2]): 130 nM

Compound: CC(C)(C)NCc1ccc2c(c1)CCC[C@H]2NC(=O)C[C@@H]1CCCCN1S(=O)(=O)c1ccccc1
IC50 (B1 bradykinin receptor [1]): 1700 nM
IC50 (B1 bradykinin receptor [2]): 2400 nM

Compound: CC(C)(C)NCc1ccc2c(c1)CCC[C@H]2NC(=O)C[C@@H]1CCCCN1S(=O)(=O)c1ccc(C(F)(F)C(F)(F)F)cc1
IC50 (B1 bradykinin receptor [1]): 360 nM
IC50 (B1 bradykinin receptor [2]): 210 nM

Compound: CC(C)(C)NCc1ccc2c(c1)CCC[C@H]2NC(=O)C[C@@H]1CCCCN1S(=O)(=O)c1ccc(-c2ccccc2)cc1
IC50 (B1 bradykinin receptor [1]): 690 nM
IC50 (B1 bradykinin receptor [2]): 540 nM

Compound: O=C(C[C@@H]1CCCCN1S(=O)(=O)c1cccc(C(F)(F)F)c1)N[C@@H]1CCCc2cc(CNCC(F)(F)F)ccc21
IC50 (B1 bradykinin receptor [1]): 1900 nM
IC50 (B1 bradykinin receptor [2]): 700 nM

Compound: Cc1ccc(S(=O)(=O)N2CCCC[C@H]2CC(=O)N[C@@H]2CCCc3cc(CNC(C)(C)C)ccc32)cc1C(F)(F)F
IC50 (B1 bradykinin receptor [1]): 11 nM
IC50 (B1 bradykinin receptor [2]): 16 nM

Compound: CC(C)(C)NCc1ccc2c(c1)CCC[C@H]2NC(=O)C[C@@H]1CCCCN1S(=O)(=O)c1cccc2cnccc12
IC50 (B1 bradykinin receptor [1]): 610 nM
IC50 (B1 bradykinin receptor [2]): 4300 nM

Compound: O=C(C[C@@H]1CCCCN1S(=O)(=O)c1cccc(C(F)(F)F)c1)N[C@@H]1CCCc2cc(CNC3CC3)ccc21
IC50 (B1 bradykinin receptor [1]): 48 nM
IC50 (B1 bradykinin receptor [2]): 47 nM

Compound: CC(C)(C)NCc1ccc2c(c1)CCC[C@H]2NC(=O)C[C@@H]1CCCCN1S(=O)(=O)c1cccc2cccnc12
IC50 (B1 bradykinin receptor [1]): 220 nM
IC50 (B1 bradykinin receptor [2]): 440 nM

Compound: CC(C)CNCc1ccc2c(c1)CCC[C@H]2NC(=O)C[C@@H]1CCCCN1S(=O)(=O)c1cccc(C(F)(F)F)c1
IC50 (B1 bradykinin receptor [1]): 13 nM
IC50 (B1 bradykinin receptor [2]): 42 nM

Compound: Cn1cnc(S(=O)(=O)N2CCCC[C@H]2CC(=O)N[C@@H]2CCCc3cc(CNC(C)(C)C)ccc32)c1
IC50 (B1 bradykinin receptor [1]): > 100000 nM
IC50 (B1 bradykinin receptor [2]): > 40000 nM

Compound: Cc1ccc(S(=O)(=O)N2CCCC[C@H]2CC(=O)N[C@@H]2CCCc3cc(CNC(C)(C)C)ccc32)cc1Cl
IC50 (B1 bradykinin receptor [1]): 15 nM
IC50 (B1 bradykinin receptor [2]): 22 nM

More lines, now with the values ahead:

IC50 (B1 bradykinin receptor [1]): 1100 nM
IC50 (B1 bradykinin receptor [2]): 4300 nM
Compound: O=C(C[C@@H]1CCCCN1S(=O)(=O)c1cccc(C(F)(F)F)c1)N[C@@H]1CCCc2cc(CN3CCC3)ccc21

IC50 (B1 bradykinin receptor [1]): 560 nM
IC50 (B1 bradykinin receptor [2]): 810 nM
Compound: CC(C)(C)NCc1ccc2c(c1)CCC[C@H]2NC(=O)C[C@@H]1CCCCN1S(=O)(=O)c1ccc(Cl)cc1

IC50 (B1 bradykinin receptor [1]): 160 nM
IC50 (B1 bradykinin receptor [2]): 95 nM
Compound: CC(C)(C)NCc1ccc2c(c1)OCC[C@H]2NC(=O)C[C@@H]1CCCCN1S(=O)(=O)c1cccc(C(F)(F)F)c1

IC50 (B1 bradykinin receptor [1]): 62 nM
IC50 (B1 bradykinin receptor [2]): 160 nM
Compound: CN(C)Cc1ccc2c(c1)CCC[C@H]2NC(=O)C[C@@H]1CCCCN1S(=O)(=O)c1cccc(C(F)(F)F)c1

IC50 (B1 bradykinin receptor [1]): 120 nM
IC50 (B1 bradykinin receptor [2]): 73 nM
Compound: CC(C)(C)NCc1ccc2c(c1)CCC[C@H]2NC(=O)C[C@@H]1CCCCN1S(=O)(=O)c1cccc(Cl)c1

IC50 (B1 bradykinin receptor [1]): 16 nM
IC50 (B1 bradykinin receptor [2]): 31 nM
Compound: O=C(C[C@@H]1CCCCN1S(=O)(=O)c1cccc(C(F)(F)F)c1)N[C@@H]1CCCc2cc(CNCC3CC3)ccc21

IC50 (B1 bradykinin receptor [1]): 1200 nM
IC50 (B1 bradykinin receptor [2]): 590 nM
Compound: CCCCOc1ccc(S(=O)(=O)N2CCCC[C@H]2CC(=O)N[C@@H]2CCCc3cc(CNC(C)(C)C)ccc32)cc1

IC50 (B1 bradykinin receptor [1]): 1500 nM
IC50 (B1 bradykinin receptor [2]): 960 nM
Compound: CC(C)(C)NCc1ccc2c(c1)OCC[C@H]2NC(=O)C[C@@H]1CCCN1S(=O)(=O)c1cccc(C(F)(F)F)c1

half-life [3]: 2 h
clearance [4]: 36.7 mL/min/kg
Vd [5]: 5.4 L/kg
bioavailability [6]: 19%
Compound: CC(C)(C)NCc1ccc2c(c1)CCC[C@H]2NC(=O)C[C@@H]1CCCCN1S(=O)(=O)c1cccc(C(F)(F)F)c1

IC50 (B1 bradykinin receptor [1]): 21 nM
IC50 (B1 bradykinin receptor [2]): 46 nM
Compound: COCCNCc1ccc2c(c1)CCC[C@H]2NC(=O)C[C@@H]1CCCCN1S(=O)(=O)c1cccc(C(F)(F)F)c1

IC50 (B1 bradykinin receptor [1]): 72 nM
IC50 (B1 bradykinin receptor [2]): 110 nM
Compound: CC(C)NCc1ccc2c(c1)CCC[C@H]2NC(=O)C[C@@H]1CCCCN1S(=O)(=O)c1cccc(C(F)(F)F)c1

IC50 (B1 bradykinin receptor [1]): 58 nM
IC50 (B1 bradykinin receptor [2]): 54 nM
Compound: O=C(C[C@@H]1CCCCN1S(=O)(=O)c1cccc(C(F)(F)F)c1)N[C@@H]1CCCc2cc(CNC3CCC3)ccc21

IC50 (B1 bradykinin receptor [1]): 14 nM
IC50 (B1 bradykinin receptor [2]): 66 nM
Compound: CC(C)(C)NCc1ccc2c(c1)CCC[C@H]2NC(=O)C[C@@H]1CCCCN1S(=O)(=O)c1csc2ccccc12

IC50 (B1 bradykinin receptor [1]): 59 nM
IC50 (B1 bradykinin receptor [2]): 230 nM
Compound: CC(C)(C)CNCc1ccc2c(c1)CCC[C@H]2NC(=O)C[C@@H]1CCCCN1S(=O)(=O)c1cccc(C(F)(F)F)c1

IC50 (B1 bradykinin receptor [1]): 150 nM
IC50 (B1 bradykinin receptor [2]): 180 nM
Compound: CC(C)(C)NCc1ccc2c(c1)CCC[C@H]2NC(=O)C[C@@H]1CCCCN1S(=O)(=O)c1cccc2nsnc12

IC50 (B1 bradykinin receptor [1]): 780 nM
IC50 (B1 bradykinin receptor [2]): 1400 nM
Compound: COc1ccc(S(=O)(=O)N2CCCC[C@H]2CC(=O)N[C@@H]2CCCc3cc(CNC(C)(C)C)ccc32)cc1
